The source of these data is ChEMBL document CHEMBL3352700 (Bioorg Med Chem Lett, 2015).

Series [1] in a line: Effective permeability by PAMPA method. Type of series: ADME. The conditions noted are these: read-out: Peff.
Series [2] is described as follows: Cmax in IGS rat at 3 mg/kg, po administered as single dose. It is filed as ADME, organism-based. Details: dose 3 mg/kg, route oral. Particulars: in vivo.
In series [3] the test system is Rattus norvegicus. The experiment in a line: AUC (infinity) in IGS rat at 3 mg/kg, po administered as single dose. Also noted: time infinity, dose 3 mg/kg, route oral. It is filed as ADME, organism-based, Plasma. The conditions noted are these: in vivo.
Series [4] is described as follows: Oral bioavailability in IGS rat at 3 mg/kg administered as single dose. Type of series: ADME, organism-based. The conditions noted are these: in vivo.
In series [5] the test system is Rattus norvegicus. The experiment in a line: Volume of distribution at steady state in IGS rat at 3 mg/kg, po administered as single dose. Type of series: ADME, organism-based. Also noted: dose 3 mg/kg, route oral. Particulars: in vivo.
The nature of series [6]: Cmax in Beagle Marshall dog at 1 mg/kg, po administered as single dose. Type of series: ADME, organism-based, Canis lupus familiaris. Details: dose 1 mg/kg, route oral. The conditions noted are these: in vivo.
Series [7] in a line: AUC (infinity) in Beagle Marshall dog at 1 mg/kg, po administered as single dose. Type of series: ADME, organism-based, Canis lupus familiaris. Details: time infinity, dose 1 mg/kg, route oral. Particulars: plasma.
Series [8] is described as follows: Oral bioavailability in Beagle Marshall dog at 1 mg/kg administered as single dose. The conditions noted are these: in vivo. Type of series: ADME, organism-based, Canis lupus familiaris.
Series [9] is described as follows: Volume of distribution at steady state in Beagle Marshall dog at 1 mg/kg administered as single dose. Type of series: ADME, organism-based, Canis lupus familiaris. Also noted: dose 1 mg/kg. Particulars: in vivo, read-out: Vdss.
Series [10] can be described thus: AUC (infinity) in IGS rat at 1 mg/kg, iv administered as single dose. Type of series: ADME, organism-based. Also noted: time infinity, dose 1 mg/kg, route intravenous. Particulars: plasma.
A short description of series [11]: Cmax in rat at 300 mg/kg, po. Type of series: ADME, organism-based. Also noted: dose 300 mg/kg, route oral. Particulars: in vivo.

On to `CCN1CC(S(=O)(=O)c2ccc3c(c2)nc(CC(C)(C)C)n3CCN(C)C)C1`, for which the Papp in [1] stood at 10 ×10⁻⁶ cm/s.
Still for that read-out and setting: with `CN(C)CCn1c(CC(C)(C)C)nc2cc(S(=O)(=O)C3CN(C(N)=O)C3)ccc21` the figure was 0.6 ×10⁻⁶ cm/s; with `CN(C)CCn1c(CC(C)(C)C)nc2cc(S(=O)(=O)C3CN(C)C3)ccc21`, 7.8 ×10⁻⁶ cm/s.
Take `CN(C)CCn1c(CC(C)(C)C)nc2cc(S(=O)(=O)C3CN(CC(F)(F)F)C3)ccc21`: in series [1], the Papp was found to be 18 ×10⁻⁶ cm/s.
The term Cmax denotes the highest concentration seen after dosing. The AUC is concentration integrated over time. What is called bioavailability is dose-corrected exposure relative to a reference, in per cent. What is called AUC(0-inf) is total exposure, with the tail of the curve extrapolated. A higher AUC(0-inf) goes with high exposure. `CN(C)CCn1c(CC(C)(C)C)nc2cc(S(=O)(=O)C3CN(CCO)C3)ccc21`: in [1], the Papp worked out at 1.5 ×10⁻⁶ cm/s. For the same molecule, the Cmax came out at 38 ng/mL in series [2], 102 ng/mL in series [6] and 1800 ng/mL in series [11]. The AUC in series [3] turned out to be 300 ng·h/mL. Also, the bioavailability is 20% in [4] and 72% in series [8]. Besides, the Vdss in series [5] came out at 5696 mL/kg. Also, the AUC(0-inf) in [7] amounted to 1000 ng·h/mL; in series [10], 391 ng·h/mL. Besides, in series [9], the Vd amounted to 5.69 L/kg.
For the molecule `CN(C)CCn1c(CC(C)(C)C)nc2cc(S(=O)(=O)C3CN(S(C)(=O)=O)C3)ccc21`, in series [1], the Papp came out at 5.9 ×10⁻⁶ cm/s.
